Source: US20240264164A1, “DETERGENTS AND METHODS” (OXFORD UNIVERSITY INNOVATION LIMITED, priority 2021, published 2024)

Key:
[1] = target: T1, membrane protein AqpZ (Escherichia coli, UniProt P60844); test: nano-electrospray ionization mass spectrometry of AqpZ in detergent (FIG. 9); design: made in house; host or cells: bacterial culture (LB broth, ampicillin); conditions: nESI, Q Exactive
Description: The samples were analysed using a Q-Exactive mass spectrometer using the following instrumental parameters: • Injection flatapole: 7.9 V • Inter flatapole lens: 6.9 V • Bent flatapole: 5.9 V • Transfer multipole: 4 V • Capillary voltage: 1.2 kV • Source temperature: 100° C. • Voltage applied to the C-trap entrance lens: 5.8 V • In-source trapping voltage: 0-200 V • Higher-energy collisional dissociation (HCD) cell voltage: 100-200 V • HCD cell pressure: 9×10^−10 mBar • Noise level parameter: 3 • Microscans: 10 • Resolution: 17,500
The suitability of the hybrid detergent in nano-electrospray ionization was investigated using a Q Exactive mass spectrometer. The results are shown in FIG. 9, along with results obtained using DDM and C8E4.

[2] = target: T1, membrane protein AqpZ; test: Stability of AqpZ in detergent solution after extraction from native membrane and IMAC; design: made in house; conditions: extraction with 1% w/v detergent solution, IMAC purification
Description: Different solutions of the membrane protein AqpZ were prepared by extracting the protein from its native membrane using a 1% w/v detergent solution and then purifying the samples using IMAC. The following solutions were prepared: one containing the hybrid detergent, one containing DDM, one containing C8E4 and one containing a mixture of C8E4 and DDM. AgpZ precipitated from the solutions containing C8E4, even when DDM was also present.

T1 sequence (P60844 whole entry): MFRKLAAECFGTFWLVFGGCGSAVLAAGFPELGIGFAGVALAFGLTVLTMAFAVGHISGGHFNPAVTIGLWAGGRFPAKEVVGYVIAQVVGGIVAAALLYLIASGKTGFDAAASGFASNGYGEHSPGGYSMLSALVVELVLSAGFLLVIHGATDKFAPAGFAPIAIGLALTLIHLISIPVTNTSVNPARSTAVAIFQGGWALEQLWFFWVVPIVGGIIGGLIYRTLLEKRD

Row | SMILES | lipid-bound states of AqpZ detected [1] | stability of AqpZ in detergent solution [2] | level of delipidation of AqpZ [1]
1 | CCCCCCCCCCCCOCC(COCCOCCOCCOCCO)Oc1ccc(OCCOC2OC(CO)C(C3OC(CO)C(O)C(O)C3O)C(O)C2O)cc1 (stereo not drawn) | detected | stable | –
2 | CCCCCCCCOCCOCCOCCOCCO [C8E4, tetraethylene glycol monooctyl ether] | – | precipitated | fully delipidating
3 | CCCCCCCCCCCCO[C@@H]1O[C@H](CO)[C@@H](O[C@H]2O[C@H](CO)[C@@H](O)[C@H](O)[C@H]2O)[C@H](O)[C@H]1O [DDM, n-dodecyl-β-D-maltoside] | detected | – | relatively low levels of delipidation
